Source: patent publication US12728107B2, “Sirtuin activator, and method for activating sirtuin” (Yuki Gosei Kogyo Co., Ltd., priority 2020, dated 2026)
Like-named read-outs stand apart in the source and are kept apart here.

Experiments:
[1] = tested on: senescence-associated β-galactosidase (SA-β-Gal) in skin dermal fibroblasts; assay: Senescence marker SA-β-Gal activity (C12FDG fluorescence) in etoposide-treated skin dermal fibroblasts; settings: FIG. 4
Sirt1 gene [2] = settings: differentiated C2C12 cells; β-alanine 500 μM and 1 mM; added twice, 24 h apart; vs 1×PBS control; FIG. 1
Sirt3 gene [3] = settings: skin dermal cells; culture supernatant of C2C12 cells treated with β-alanine; FIG. 3
Experimental: (§1) In this example, the activation of the sirtuin gene in skin dermal cells via a substance secreted from muscle cells (C2C12 cells) by β-alanine was examined.
(§2) C2C12 cells were seeded in 5-mL Dish at 2.0×10^5 cells/well, and 48 hours later, the medium was replaced with DMEM medium containing 2% HS to induce differentiation. The culture medium was changed every 2 days to a new medium, and differentiation was induced. Then, the medium was changed every 2 days and β-alanine was added, and the culture supernatant was collected after 8 days of culture. 1×PBS was added to the control cells. After 24 hours of the addition, sample was secondary added, and the culture supernatant was collected after 24 hours of the second addition of sample.
(§3) Specifically, cells were seeded at a concentration of 3.0×10^4 cells/mL in a 5 mL dish.
(§4) RNA extraction from cells, cDNA synthesis, and RT-PCR were performed by the same procedure as in Example 2. The sequences of the used primers of the human sirt6 gene are as follows.

Sirt1 gene [4] = settings: skin dermal cells; culture supernatant of C2C12 cells treated with β-alanine; FIG. 3
Experimental: as §1, §2, §3, §4

Sirt6 gene = settings: skin dermal cells; culture supernatant of C2C12 cells treated with β-alanine; FIG. 3
Experimental: as §1, §2, §3, §4

Sirt3 gene [5] = settings: differentiated C2C12 cells; β-alanine 500 μM and 1 mM; added twice, 24 h apart; vs 1×PBS control; FIG. 1
Sirt3 gene [6] = settings: HaCaT cells; β-alanine 500 μM and 10 mM; added twice, 24 h apart; vs 1×PBS control; FIG. 2
Experimental: (§5) In this example, a transcription of the Sirt1 gene and Sirt3 gene in HaCaT cells, a human epidermal keratinocyte cell line, was measured.
(§6) HaCaT cells were seeded in 6-well plates at 6.0×10^4 cells/well. After 24 hours, β-alanine was added to the cells, and 1×PBS was added to the control cells. After 24 hours of the addition, sample was secondary added, and the medium was aspirated after 24 hours of the second addition of sample. Then, 1×PBS was added at 1 mL/well to wash the cells. RNA extraction from cells, cDNA synthesis, and RT-PCR were performed by the same procedure as in Example 1. The sequences of the used primers of the human sirtuin genes are as follows.

Sirt1 gene [7] = settings: HaCaT cells; β-alanine 500 μM and 10 mM; added twice, 24 h apart; vs 1×PBS control; FIG. 2
Experimental: as §5, §6

fluorescence intensity of C12FDG (SA-β-Gal activity) ([1]; dermal fibroblasts, etoposide 50 μM for 30 minutes, vs DMSO control) | fluorescence intensity of C12FDG (SA-β-Gal activity) ([1]; etoposide-treated dermal fibroblasts, culture supernatant of β-alanine-treated C2C12 cells, 48 hours) | SMILES | expression of Sirt1 (Sirt1 gene [2]) | expression of Sirt3 (Sirt3 gene [3]) | expression of Sirt1 (Sirt1 gene [4]) | expression of Sirt6 (Sirt6 gene) | expression of Sirt3 (Sirt3 gene [5]) | expression of Sirt3 (Sirt3 gene [6]) | expression of Sirt1 (Sirt1 gene [7])
significantly enhanced |  | COc1cc([C@@H]2c3cc4c(cc3[C@@H](O[C@@H]3O[C@@H]5CO[C@@H](C)O[C@H]5[C@H](O)[C@H]3O)[C@H]3COC(=O)[C@H]23)OCO4)cc(OC)c1O [etoposide, reference compound] |  |  |  |  |  |  | 
 | decreased | NCCC(=O)O [β-alanine, 3-aminopropanoic acid] | enhanced | enhanced | enhanced | enhanced | enhanced | enhanced | enhanced
